Drawing on PubChem BioAssay AID330 (DTP/NCI, 2004), this text covers T/C for 19 compounds.

For this assay, the system named is P388 leukemia ip, CD2F1 mice, survival T/C. Nature of the assay: NCI In Vivo Anticancer Drug Screen. Data for tumor model P388 Leukemia (intraperitoneal) in CD2F1 (CDF1) mice. As to conditions: endpoint: median survival time, higher = longer survival. The procedure, abridged: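 Mice carrying the transplanted tumor received test compound or vehicle. Survival was recorded in each group, and the value is the treated-group measurement divided by that of the vehicle-treated control group.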

Where [1] appears, read: dose: 12.5 mg/kg/injection, schedule: Q01DX009 (ip), vehicle: Klucel (hydroxypropylcellulose) (HPC).
The mark [2] stands for this setting: dose: 60.0 mg/kg/injection, schedule: Q01DX005 (ip), vehicle: saline with Tween-80.
Where [3] appears, read: dose: 120.0 mg/kg/injection, schedule: Q01DX005 (ip), vehicle: saline with Tween-80.
Where [4] appears, read: dose: 240.0 mg/kg/injection, schedule: Q01DX005 (ip), vehicle: saline with Tween-80.

“And” between values parts separate entries of the source, which are not always exact repeats. Equal values may be shown once. Inconclusive results and toxic doses are left out.

Consider `COc1cccc2c1C(=O)c1c(O)c3c(c(O)c1C2=O)C[C@@](O)(C(C)=O)C[C@@H]3OC1CC(N2CCCCC2)C(O)C(C)O1` (stereo not given in full), for which the T/C is 111 % of control (dose: 1.56 mg/kg/injection, schedule: Q04DX003 (ip), vehicle: water); 191 % of control (dose: 6.25 mg/kg/injection, schedule: Q04DX003 (ip), vehicle: distilled water + Tween-80); 163 % of control (dose: 6.25 mg/kg/injection, schedule: Q04DX003 (ip), vehicle: water); 106 % of control (dose: 12.5 mg/kg/injection, schedule: Q04DX003 (ip), vehicle: distilled water + Tween-80); 111 % of control (dose: 12.5 mg/kg/injection, schedule: Q04DX003 (ip), vehicle: water); 99 % of control (dose: 25.0 mg/kg/injection, schedule: Q04DX003 (ip), vehicle: distilled water + Tween-80).
Take `O=S1(=O)CCN(C2CC2)CC1`: the T/C is, setting by setting: under setting [1], 98 % of control; (dose: 25.0 mg/kg/injection, schedule: Q01DX009 (ip), vehicle: Klucel (hydroxypropylcellulose) (HPC)) 100 % of control; (dose: 50.0 mg/kg/injection, schedule: Q01DX009 (ip), vehicle: Klucel (hydroxypropylcellulose) (HPC)) 111 % of control.
With `COc1cc2c(=O)n3c4c(cccc4c2cc1OC)CCC3`, the T/C is 94 % of control (dose: 25.0 mg/kg/injection, schedule: Q01DX009 (ip), vehicle: other); 90 % of control (dose: 50.0 mg/kg/injection, schedule: Q01DX009 (ip), vehicle: other); 87 % of control (dose: 100.0 mg/kg/injection, schedule: Q01DX009 (ip), vehicle: other); 92 % of control (dose: 200.0 mg/kg/injection, schedule: Q01DX009 (ip), vehicle: other); 100 % of control (dose: 400.0 mg/kg/injection, schedule: Q01DX009 (ip), vehicle: other).
With `C/C(=N\NC(=S)N1CC2CCC(CC2)C1)c1ccccn1`, the T/C was 101 % of control and 118 % of control (dose: 1.56 mg/kg/injection, schedule: Q01DX009 (ip), vehicle: Klucel (hydroxypropylcellulose) (HPC)); 107 % of control (dose: 3.12 mg/kg/injection, schedule: Q01DX009 (ip), vehicle: Klucel (hydroxypropylcellulose) (HPC)); 120 % of control (dose: 3.13 mg/kg/injection, schedule: Q01DX009 (ip), vehicle: Klucel (hydroxypropylcellulose) (HPC)); 115 % of control and 123 % of control (dose: 6.25 mg/kg/injection, schedule: Q01DX009 (ip), vehicle: Klucel (hydroxypropylcellulose) (HPC)); 115 % of control under setting [1].
For the compound `CNc1ccc2ccc(N(C)C)cc2n1`, the T/C reads like this: (dose: 12.5 mg/kg/injection, schedule: Q04DX002 (ip), vehicle: Klucel (hydroxypropylcellulose) (HPC)) 102 % of control; (dose: 25.0 mg/kg/injection, schedule: Q04DX002 (ip), vehicle: Klucel (hydroxypropylcellulose) (HPC)) 97 % of control; (dose: 50.0 mg/kg/injection, schedule: Q04DX002 (ip), vehicle: Klucel (hydroxypropylcellulose) (HPC)) 101 % of control.
As to `CCC1(c2ccc(C)cc2)C(=O)NC(=S)NC1=O`, the T/C runs as follows: under setting [2], 102 % of control; under setting [3], 94 % of control.
`CC1=C2C3OC(=O)C(C)C3CCC2(C)C=C(Br)C1=O` (stereo not given): the T/C by setting is: (dose: 60.0 mg/kg/injection, schedule: Q01DX005 (ip), vehicle: Klucel (hydroxypropylcellulose) (HPC)) 106 % of control; (dose: 100.0 mg/kg/injection, schedule: Q04DX002 (ip), vehicle: saline with Tween-80) 101 % of control; (dose: 120.0 mg/kg/injection, schedule: Q01DX005 (ip), vehicle: Klucel (hydroxypropylcellulose) (HPC)) 98 % of control; (dose: 200.0 mg/kg/injection, schedule: Q04DX002 (ip), vehicle: saline with Tween-80) 97 % of control; (dose: 240.0 mg/kg/injection, schedule: Q01DX005 (ip), vehicle: Klucel (hydroxypropylcellulose) (HPC)) 104 % of control; (dose: 400.0 mg/kg/injection, schedule: Q04DX002 (ip), vehicle: saline with Tween-80) 97 % of control.
Consider `O=C(CN1CCN(CCO)CC1)N1c2ccccc2Sc2ccc(C(F)(F)F)cc21`, for which the T/C was 101 % of control (dose: 100.0 mg/kg/injection, schedule: Q04DX002 (ip), vehicle: saline) and 90 % of control (dose: 200.0 mg/kg/injection, schedule: Q04DX002 (ip), vehicle: saline).
For the compound `Cc1cccc(Cl)c1NC(=O)NCCCN1CCOCC1`, the T/C runs as follows: under setting [2], 102 % of control; under setting [3], 100 % of control; under setting [4], 112 % of control.
Taken in the same sequence, the figures for `Nc1ncnc2nc(-c3ccc(SCc4ccccc4)cc3)[nH]c12` were 95 % of control, 94 % of control and 93 % of control.
With `COc1ccc(/C=C\c2cc(OC)c(OC)c(OC)c2)c(O)c1O`, the T/C (dose: 3.12 mg/kg/injection, schedule: Q01DX009 (ip), vehicle: saline + Tween-80 + alcohol) was 124 % of control; the T/C (dose: 12.5 mg/kg/injection, schedule: Q01DX009 (ip), vehicle: saline + Tween-80 + alcohol) was 104 % of control and 97 % of control; the T/C (dose: 22.0 mg/kg/injection, schedule: Q01DX009 (ip), vehicle: saline + alcohol) is 95 % of control; the T/C (dose: 50.0 mg/kg/injection, schedule: Q01DX009 (ip), vehicle: saline + Tween-80 + alcohol) is 109 % of control.
`COc1ccc2c(c1)CCc1c-2nc(N)nc1-c1nc(N)nc2c1CCc1cc(OC)ccc1-2`: the T/C runs as follows: under setting [2], 100 % of control; under setting [3], 100 % of control; under setting [4], 100 % of control.
With `CSC(=S)NC#N`, the T/C runs as follows: (dose: 25.0 mg/kg/injection, schedule: Q01DX009 (ip), vehicle: saline with Tween-80) 111 % of control; (dose: 50.0 mg/kg/injection, schedule: Q01DX009 (ip), vehicle: saline with Tween-80) 100 % of control; (dose: 100.0 mg/kg/injection, schedule: Q01DX009 (ip), vehicle: saline with Tween-80) 107 % of control; (dose: 200.0 mg/kg/injection, schedule: Q01DX009 (ip), vehicle: saline with Tween-80) 108 % of control.
As to `CCC(c1ccc(OCC(=O)N/N=C2/CCC3C4CCc5cc(O)ccc5C4CCC23C)cc1)C(CC)c1ccc(OCC(=O)N/N=C2\CCC3C4CCc5cc(O)ccc5C4CCC23C)cc1` (stereo not given), the T/C is, setting by setting: (dose: 25.0 mg/kg/injection, schedule: Q01DX001 (ip), vehicle: Klucel (hydroxypropylcellulose) (HPC)) 98 % of control; (dose: 50.0 mg/kg/injection, schedule: Q01DX001 (ip), vehicle: Klucel (hydroxypropylcellulose) (HPC)) 90 % of control.
Consider `CC(C)(C)/[N+]([O-])=C/C1(C2(/C=[N+](\[O-])C(C)(C)C)Cc3ccccc3C2=O)Cc2ccccc2C1=O` (stereo not given), for which the T/C is 101 % of control under setting [2], 105 % of control under setting [3] and 103 % of control under setting [4].
Turning to `CCOc1cc(/C=N\Nc2nncn2N)c(C)cc1N(CCCl)CCCl`, under “dose: 50.0 mg/kg/injection, schedule: Q04DX003 (ip), vehicle: saline sonified”, the T/C was 116 % of control.
Turning to `CCN(CC)CCOC(=O)C(C(=O)OCCN(CC)CC)C1CCCC1`, the T/C (dose: 50.0 mg/kg/injection, schedule: Q01DX005 (ip), vehicle: saline) was 94 % of control; the T/C (dose: 100.0 mg/kg/injection, schedule: Q01DX005 (ip), vehicle: saline) was 92 % of control; the T/C (dose: 200.0 mg/kg/injection, schedule: Q01DX005 (ip), vehicle: saline) was 100 % of control.
Take `COc1ccc(S(=O)(=O)N/N=C/c2cc(=O)[nH]c(=O)[nH]2)cc1`: the T/C is 100 % of control (dose: 25.0 mg/kg/injection, schedule: Q01DX005 (ip), vehicle: saline with Tween-80); 101 % of control (dose: 50.0 mg/kg/injection, schedule: Q01DX005 (ip), vehicle: saline with Tween-80); 105 % of control (dose: 100.0 mg/kg/injection, schedule: Q01DX005 (ip), vehicle: saline with Tween-80); 118 % of control (dose: 200.0 mg/kg/injection, schedule: Q01DX005 (ip), vehicle: saline with Tween-80).
On to `CCCCCCCCCCCCCCCC(=O)OC12CC(C)C3(O)C(C=C(CO)CC4(O)C(=O)C(C)=CC43)C1C2(C)CO` (stereo not given), for which the T/C runs as follows: (dose: 0.03 mg/kg/injection, schedule: Q01DX009 (ip), vehicle: saline with Tween-80) 119 % of control; (dose: 0.06 mg/kg/injection, schedule: Q01DX009 (ip), vehicle: saline with Tween-80) 100 % of control; (dose: 0.9 micrograms/kg/injection, schedule: Q01DX009 (ip), vehicle: other) 100 % of control; (dose: 1.8 micrograms/kg/injection, schedule: Q01DX009 (ip), vehicle: other) 99 % of control; (dose: 3.7 micrograms/kg/injection, schedule: Q01DX009 (ip), vehicle: other) 101 % of control; (dose: 7.5 micrograms/kg/injection, schedule: Q01DX009 (ip), vehicle: other) 101 % of control. The T/C (dose: 15.0 micrograms/kg/injection, schedule: Q01DX009 (ip), vehicle: other) is 104 % of control and the T/C (dose: 30.0 micrograms/kg/injection, schedule: Q01DX009 (ip), vehicle: other) is 104 % of control.
